Laboratory results published in ChEMBL document CHEMBL1146286, “Synthesis of carbon-11 labeled sulfonanilide analogues as new potential PET agents for imaging of aromatase in breast cancer” (Bioorg Med Chem Lett, 2007).
Calls of active or inactive are those of the source. No cut-off for these calls is given here.

Experiments:
[1] = target: T1, Prostaglandin G/H synthase 2 (Homo sapiens) (UniProt P35354); test: Inhibition of COX2
T1 sequence (whole entry): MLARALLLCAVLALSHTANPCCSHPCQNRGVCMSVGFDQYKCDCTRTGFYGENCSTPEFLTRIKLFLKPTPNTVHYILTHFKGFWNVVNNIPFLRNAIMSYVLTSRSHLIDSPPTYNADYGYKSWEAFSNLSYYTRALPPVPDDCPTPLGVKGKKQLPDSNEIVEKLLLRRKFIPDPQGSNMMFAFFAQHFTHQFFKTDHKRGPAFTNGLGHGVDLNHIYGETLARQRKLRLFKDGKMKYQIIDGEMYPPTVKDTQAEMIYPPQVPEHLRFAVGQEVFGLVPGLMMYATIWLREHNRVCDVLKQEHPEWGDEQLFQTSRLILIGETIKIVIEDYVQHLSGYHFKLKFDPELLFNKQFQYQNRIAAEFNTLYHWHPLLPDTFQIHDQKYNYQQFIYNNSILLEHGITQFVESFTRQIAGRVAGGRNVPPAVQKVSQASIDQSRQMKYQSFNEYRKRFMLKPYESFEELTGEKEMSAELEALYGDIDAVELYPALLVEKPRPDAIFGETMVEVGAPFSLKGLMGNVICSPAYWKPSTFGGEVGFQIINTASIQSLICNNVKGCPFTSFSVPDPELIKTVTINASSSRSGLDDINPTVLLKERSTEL

SK-BR-3 = test: Cytotoxicity against human SK-BR-3 cells after 24 hrs by MTT assay relative to NS398; assay type: functional, cell-based; conditions: SK-BR-3, 24 h

Row | Activity [1] | SMILES | IC50 (SK-BR-3) [nM]
1 | inactive | CN(c1ccc([N+](=O)[O-])cc1OCCC1CCCCC1)S(C)(=O)=O | 2540
2 | inactive | CCCOc1cc([N+](=O)[O-])ccc1N(C)S(C)(=O)=O | 1240
3 | inactive | CN(c1ccc([N+](=O)[O-])cc1OC1CCCCC1)S(C)(=O)=O | 660
4 | inactive | CN(c1ccc([N+](=O)[O-])cc1OC1CCCC1)S(C)(=O)=O | 1090
5 | inactive | CCC(CC)Oc1cc([N+](=O)[O-])ccc1N(C)S(C)(=O)=O | 840
6 | inactive | CC(C)Oc1cc([N+](=O)[O-])ccc1N(C)S(C)(=O)=O | 1790
7 | – | CS(=O)(=O)Nc1ccc([N+](=O)[O-])cc1OC1CCCCC1 [NS-398] | 720
